In general, logD refers to the decadic logarithm of the distribution of all forms, ionised or not, between an organic phase and buffer at a given pH. In general, solubility refers to how much of the substance goes into solution per volume. A word on the Papp: it is a coefficient for how fast a substance crosses the barrier. A low value points to poor permeation. The pIC50 is the negative decadic logarithm of the IC50, by convention in mol/L. Higher therefore signals a small IC50.

pIC50: −log10 of the molar value. Values after ≈ are worked out from the molar mass of the structure shown.

The values that follow come from ChEMBL document CHEMBL5143671, “Discovery of (R)-(3-fluoropyrrolidin-1-yl)(6-((5-(trifluoromethyl)pyridin-2-yl)oxy)quinolin-2-yl)methanone (ABBV-318) and analogs as small molecule Nav1.7/ Nav1.8 blockers for the treatment of pain” (Bioorg Med Chem, 2022).

The conditions of series [1]: human, microsomes, 0.5 h, 0.5 µM.
For series [2] the following is noted: rat, microsomes, 0.5 h, 0.5 µM.
Series [3] is described as follows: physchem. Particulars: octanol/water.
The nature of series [4]: physchem. Particulars: phosphate buffer.
A short description of series [5]: in vitro. The following applies: dog, MDCK.
The target of series [6] is Voltage-gated inwardly rectifying potassium channel KCNH2 (Homo sapiens, UniProt Q12809).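 Note: hERG channel blockade measured by electrophysiology.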
For series [7], the target named is Sodium channel protein type 5 subunit alpha (Homo sapiens, UniProt Q14524).
The nature of series [8]: in vitro. The following applies: PAMPA. Background: In PAMPA a lipid-coated filter parts donor from acceptor wells.
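Throughout, for logD: distribution coefficient quantified using high-throughput LC-MS.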
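Throughout, for solubility: determined using a high-throughput solubility method.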

Sequence of Voltage-gated inwardly rectifying potassium channel KCNH2 (Q12809 whole entry): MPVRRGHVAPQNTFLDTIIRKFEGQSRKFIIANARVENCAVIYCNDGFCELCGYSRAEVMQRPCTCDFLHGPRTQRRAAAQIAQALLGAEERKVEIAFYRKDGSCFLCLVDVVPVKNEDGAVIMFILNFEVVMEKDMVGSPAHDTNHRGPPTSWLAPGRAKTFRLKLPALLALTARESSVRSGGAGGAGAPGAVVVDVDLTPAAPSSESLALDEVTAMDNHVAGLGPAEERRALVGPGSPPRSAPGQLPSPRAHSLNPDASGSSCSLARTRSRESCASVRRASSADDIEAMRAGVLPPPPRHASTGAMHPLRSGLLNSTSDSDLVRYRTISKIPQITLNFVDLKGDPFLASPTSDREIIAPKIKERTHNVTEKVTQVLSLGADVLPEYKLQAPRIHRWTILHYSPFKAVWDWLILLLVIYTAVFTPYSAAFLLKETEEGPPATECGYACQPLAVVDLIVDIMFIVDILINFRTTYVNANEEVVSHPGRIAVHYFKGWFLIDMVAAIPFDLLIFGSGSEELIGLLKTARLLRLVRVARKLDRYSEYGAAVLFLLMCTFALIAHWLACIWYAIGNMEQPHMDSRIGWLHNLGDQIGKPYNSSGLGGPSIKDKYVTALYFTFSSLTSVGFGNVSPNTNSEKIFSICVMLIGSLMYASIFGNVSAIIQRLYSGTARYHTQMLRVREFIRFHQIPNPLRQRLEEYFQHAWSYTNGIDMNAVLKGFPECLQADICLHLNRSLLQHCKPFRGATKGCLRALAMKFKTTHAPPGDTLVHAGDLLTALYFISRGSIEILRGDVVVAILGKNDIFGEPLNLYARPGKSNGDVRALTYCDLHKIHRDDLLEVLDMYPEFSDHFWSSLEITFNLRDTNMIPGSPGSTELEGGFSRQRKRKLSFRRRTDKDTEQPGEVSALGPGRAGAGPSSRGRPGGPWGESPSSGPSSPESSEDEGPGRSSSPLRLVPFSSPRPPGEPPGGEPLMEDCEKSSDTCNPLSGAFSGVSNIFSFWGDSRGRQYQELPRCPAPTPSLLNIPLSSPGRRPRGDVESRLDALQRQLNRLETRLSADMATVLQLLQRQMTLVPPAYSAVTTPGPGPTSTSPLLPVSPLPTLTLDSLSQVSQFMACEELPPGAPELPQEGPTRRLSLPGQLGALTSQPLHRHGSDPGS
Sequence of Sodium channel protein type 5 subunit alpha (Q14524 whole entry): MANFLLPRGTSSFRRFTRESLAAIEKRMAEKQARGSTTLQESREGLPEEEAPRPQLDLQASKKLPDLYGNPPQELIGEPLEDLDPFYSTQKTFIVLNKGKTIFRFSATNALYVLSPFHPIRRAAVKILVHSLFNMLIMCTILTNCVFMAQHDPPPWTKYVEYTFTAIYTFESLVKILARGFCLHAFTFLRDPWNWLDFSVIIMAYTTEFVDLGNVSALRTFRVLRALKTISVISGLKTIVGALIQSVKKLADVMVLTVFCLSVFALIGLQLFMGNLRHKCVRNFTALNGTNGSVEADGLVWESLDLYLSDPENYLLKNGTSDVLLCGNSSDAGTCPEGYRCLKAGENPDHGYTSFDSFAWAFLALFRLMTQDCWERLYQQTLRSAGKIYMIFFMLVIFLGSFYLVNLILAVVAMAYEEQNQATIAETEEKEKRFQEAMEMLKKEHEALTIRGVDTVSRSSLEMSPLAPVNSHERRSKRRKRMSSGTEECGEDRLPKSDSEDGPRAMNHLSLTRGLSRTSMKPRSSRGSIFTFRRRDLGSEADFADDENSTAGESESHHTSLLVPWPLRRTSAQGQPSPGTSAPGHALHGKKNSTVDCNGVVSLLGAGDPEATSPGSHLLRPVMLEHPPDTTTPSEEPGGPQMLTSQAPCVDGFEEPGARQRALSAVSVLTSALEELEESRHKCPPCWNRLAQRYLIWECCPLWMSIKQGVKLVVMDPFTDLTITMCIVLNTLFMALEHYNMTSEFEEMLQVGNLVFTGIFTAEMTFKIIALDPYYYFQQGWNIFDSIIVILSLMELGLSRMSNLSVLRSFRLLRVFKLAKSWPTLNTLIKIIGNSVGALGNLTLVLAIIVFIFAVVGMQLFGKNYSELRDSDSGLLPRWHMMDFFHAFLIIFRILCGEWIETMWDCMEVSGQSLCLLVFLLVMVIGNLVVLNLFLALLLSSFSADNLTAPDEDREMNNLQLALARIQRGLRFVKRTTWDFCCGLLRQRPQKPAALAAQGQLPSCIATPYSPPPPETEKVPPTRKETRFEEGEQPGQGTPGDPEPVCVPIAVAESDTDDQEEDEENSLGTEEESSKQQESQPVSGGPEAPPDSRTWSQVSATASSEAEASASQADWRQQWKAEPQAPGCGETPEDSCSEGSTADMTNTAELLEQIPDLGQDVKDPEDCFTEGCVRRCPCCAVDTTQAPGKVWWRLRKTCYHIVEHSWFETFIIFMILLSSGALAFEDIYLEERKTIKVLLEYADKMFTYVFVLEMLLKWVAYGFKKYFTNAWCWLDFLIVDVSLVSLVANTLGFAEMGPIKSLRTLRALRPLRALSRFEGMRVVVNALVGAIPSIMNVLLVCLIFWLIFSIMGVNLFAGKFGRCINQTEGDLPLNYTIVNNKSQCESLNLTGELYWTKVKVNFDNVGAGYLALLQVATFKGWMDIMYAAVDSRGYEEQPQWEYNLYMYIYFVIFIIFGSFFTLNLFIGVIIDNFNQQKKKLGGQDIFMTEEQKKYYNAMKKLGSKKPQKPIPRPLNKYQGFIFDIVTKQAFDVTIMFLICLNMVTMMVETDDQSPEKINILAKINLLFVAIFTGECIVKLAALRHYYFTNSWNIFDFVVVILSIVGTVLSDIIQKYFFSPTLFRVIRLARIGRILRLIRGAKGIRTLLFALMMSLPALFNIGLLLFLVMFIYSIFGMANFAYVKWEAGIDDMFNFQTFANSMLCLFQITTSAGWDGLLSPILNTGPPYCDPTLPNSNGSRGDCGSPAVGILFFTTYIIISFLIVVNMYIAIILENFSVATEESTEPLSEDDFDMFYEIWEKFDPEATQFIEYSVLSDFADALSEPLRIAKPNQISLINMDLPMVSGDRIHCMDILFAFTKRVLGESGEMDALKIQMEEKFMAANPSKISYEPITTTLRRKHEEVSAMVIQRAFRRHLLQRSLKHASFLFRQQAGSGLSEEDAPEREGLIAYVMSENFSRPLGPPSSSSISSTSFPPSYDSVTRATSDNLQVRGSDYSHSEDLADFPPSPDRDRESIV

Consider `O=C1CN(C(=O)COc2ccc3cc(Oc4ccc(C(F)(F)F)cn4)ccc3n2)CCN1`, for which the CLH is below 56.7 mL/min/kg in series [1] and below 61.7 mL/min/kg in series [2]. The same compound showed a logD in the series “physchem [3]” of 3.2. The compound further registered a solubility in “physchem [4]” of 23 µM (≈ 10.3 µg/mL). In the series “in vitro [5]”, this compound returned a Papp of 44.1 ×10⁻⁶ cm/s.
On to `NC(=O)CNC(=O)COc1ccc2cc(Oc3ccccn3)ccc2n1`, for which, in series [6], the pIC50 was 4.52. Also, the CLH was 33 mL/min/kg in series [1] and below 45 mL/min/kg in series [2]. Moreover, the logD in “physchem [3]” was 2.2. The same compound yielded a solubility in “physchem [4]” of 57.5 µM (≈ 20.3 µg/mL). Also, in the series “in vitro [5]”, the Papp was 8.7 ×10⁻⁶ cm/s.
In the case of `CN1CCN(C(=O)COc2ccc3cc(Oc4ccc(C(F)(F)F)cn4)ccc3n2)CC1`, the CLH in series [1] worked out at 100 mL/min/kg; in series [2], 967 mL/min/kg. This compound showed a solubility in the series “physchem [4]” of 200 µM (≈ 89.3 µg/mL).
`O=C(c1ccc2cc(Oc3ccc(C(F)(F)F)cn3)ccc2n1)N1CC(F)(F)C1` gave a pIC50 in series [7] of 4.99. Also, in “physchem [4]”, the solubility came out at 5 µM (≈ 2.05 µg/mL). Moreover, the Papp in “in vitro [8]” was found to be 3.04 ×10⁻⁶ cm/s.
As for `O=C(COc1ccc2cc(Oc3ccc(C(F)(F)F)cn3)ccc2n1)N1CCCCC1`, the CLH in series [1] was determined as 233 mL/min/kg; in series [2] it was 917 mL/min/kg. Besides, in “physchem [4]”, the solubility came out at 48 µM (≈ 20.7 µg/mL). The Papp in the series “in vitro [5]” stood at 38.6 ×10⁻⁶ cm/s.
On to `O=C(c1ccc2cc(Oc3ccc(C(F)(F)F)cn3)ccc2n1)N1CCC1`, for which the pIC50 in series [7] was 4.48.
Take `N#Cc1ccc(Oc2ccc3nc(OCC(=O)N4CCOCC4)ccc3c2)cc1`: the figures for the CLH in series [1] and in series [2] were 50 mL/min/kg and below 50 mL/min/kg, respectively. The same compound displayed a logD in the series “physchem [3]” of 3.4. In “in vitro [5]”, the Papp is 30.1 ×10⁻⁶ cm/s.
Take `O=C(NC1CCOC1)c1ccc2cc(Oc3ccc(C(F)(F)F)cn3)ccc2n1` (stereo unspecified): the pIC50 in series [7] was 4.48.
In series [6], `O=C(c1ccc2cc(Oc3ccc(F)cn3)ccc2n1)N1CCNCC1` had a pIC50 of 4.77. In the series “physchem [4]”, this compound gave a solubility of 150 µM (≈ 52.9 µg/mL).
In the case of `N#Cc1ccc(Oc2ccc3nc(OCCN4CCCCC4)ccc3c2)cc1`, the pIC50 in series [6] was above 6.00. Also, the CLH in series [1] is 50 mL/min/kg; in series [2], 217 mL/min/kg. Further, the logD in the series “physchem [3]” stood at 3.5.
Consider `O=C(COc1ccc2cc(Oc3ccccn3)ccc2n1)N1CCNCC1`, for which the CLH in series [1] was determined as 183 mL/min/kg; in series [2], 200 mL/min/kg. This compound also gave a logD in “physchem [3]” of 2.7. In the series “physchem [4]”, this compound gave a solubility of 200 µM (≈ 72.9 µg/mL). The compound further registered a Papp in “in vitro [5]” of 29.4 ×10⁻⁶ cm/s.
As for `N#Cc1ccc(-c2ccc3c(ccc(=O)n3CC(=O)N3CCCCC3)c2)cc1`, the pIC50 in series [6] is 4.77. The CLH in series [1] came out at 33 mL/min/kg; in series [2], 100 mL/min/kg. In “in vitro [8]”, this compound showed a Papp of 16.1 ×10⁻⁶ cm/s.
In turn, `O=C1CN(C(=O)COc2ccc3cc(Oc4ccccn4)ccc3n2)CCN1` had a pIC50 in series [6] of 4.52. Moreover, the CLH was 65 mL/min/kg in series [1] and below 65 mL/min/kg in series [2]. The same compound came in with a solubility in “physchem [4]” of 200 µM (≈ 75.7 µg/mL). The Papp in the series “in vitro [5]” was found to be 22 ×10⁻⁶ cm/s.
On to `O=C(COc1ccc2cc(Oc3ccccn3)ccc2n1)N1CCCCC1`, for which, in series [6], the pIC50 is 4.52. Besides, the CLH is 100 mL/min/kg in series [1] and 2400 mL/min/kg in series [2]. Also, the logD in the series “physchem [3]” was 3.6. The solubility in the series “physchem [4]” amounted to 156 µM (≈ 56.7 µg/mL). The Papp in “in vitro [5]” is 66.9 ×10⁻⁶ cm/s.
For the compound `N#Cc1ccc(Oc2ccc3nc(OCC(=O)N4CCNC(=O)C4)ccc3c2)cc1`, the CLH in series [1] was below 33 mL/min/kg; in series [2], below 50 mL/min/kg. In “physchem [3]”, this compound registered a logD of 3.1. Further, the solubility in “physchem [4]” was 141 µM (≈ 56.7 µg/mL). The Papp in the series “in vitro [5]” was found to be 32.1 ×10⁻⁶ cm/s.
As for `N#Cc1ccc(-c2ccc3c(ccc(=O)n3CCN3CCCCC3)c2)cc1`, the pIC50 in series [6] is above 6.00. The results for the CLH in series [1] and in series [2] were 33 mL/min/kg and 100 mL/min/kg, respectively. In addition, the Papp in the series “in vitro [8]” was 8.3 ×10⁻⁶ cm/s.
With `O=C(c1ccc2cc(Oc3ncc(C(F)(F)F)cn3)ccc2n1)N1CCNCC1`, the logD in the series “physchem [3]” was 2.1. The solubility in the series “physchem [4]” came to 138 µM (≈ 55.7 µg/mL). The Papp in the series “in vitro [8]” came out at 1.5 ×10⁻⁶ cm/s.
Turning to `O=C(c1ccc2cc(Oc3ccc(C(F)(F)F)cn3)ccc2n1)N1CCCC1`, the pIC50 in series [7] was 4.48.
